Data as given in US10383948B2, “Anti-cMet antibody drug conjugates and methods for their use” (AbbVie Inc., priority 2016, dated 2019).

Legend:
[1] = test system: CTG-0115 colorectal PDX; assay: Patient-derived xenograft, tumor growth delay; type: in vivo, NSG mice; conditions: PDX CTG-0115 (Colorectal); every seven days, six doses; median time to 1 cm^3 vs control
Procedure: (§1) Tumor fragments of 3 to 5 mm^3 at passage 3 (P3) were implanted subcutaneously in the right rear flank of NSG mice (The Jackson Laboratory) with a trochar. ABBV-399 and ABT-700 PBD were administered every seven days for a total of six doses. […] For all groups, tumor volumes were plotted only for the duration that allowed the full set of animal to remain on study. If animals had to be taken off study, the remaining animals were monitored for tumor growth until they reached defined end-points.

[2] = test system: CTG-0652 colorectal PDX; assay: Patient-derived xenograft, tumor growth delay; type: in vivo, NSG mice; conditions: PDX CTG-0652 (Colorectal); every seven days, six doses; median time to 1 cm^3 vs control
Procedure: as §1

[3] = test system: CTG-0382 colorectal PDX; assay: Patient-derived xenograft, tumor growth delay; type: in vivo, NSG mice; conditions: PDX CTG-0382 (Colorectal); every seven days, six doses; median time to 1 cm^3 vs control
Procedure: as §1

[4] = test system: CTG-0062 colorectal PDX; assay: Patient-derived xenograft, tumor growth delay; type: in vivo, NSG mice; conditions: PDX CTG-0062 (Colorectal); every seven days, six doses; median time to 1 cm^3 vs control
Procedure: as §1

[5] = test system: CTG-0358 colorectal PDX; assay: Patient-derived xenograft, tumor growth delay; type: in vivo, NSG mice; conditions: PDX CTG-0358 (Colorectal); every seven days, six doses; median time to 1 cm^3 vs control
Procedure: as §1

[6] = test system: CTG-0178 NSCL PDX; assay: Patient-derived xenograft, tumor growth delay; type: in vivo, NSG mice; conditions: PDX CTG-0178 (NSCL); every seven days, six doses; median time to 1 cm^3 vs control
Procedure: as §1

[7] = test system: CTG-0363 NSCL PDX; assay: Patient-derived xenograft, tumor growth delay; type: in vivo, NSG mice; conditions: PDX CTG-0363 (NSCL); every seven days, six doses; median time to 1 cm^3 vs control
Procedure: as §1

[8] = test system: CTG-0084 colorectal PDX; assay: Patient-derived xenograft, tumor growth delay; type: in vivo, NSG mice; conditions: PDX CTG-0084 (Colorectal); every seven days, six doses; median time to 1 cm^3 vs control
Procedure: as §1

[9] = test system: CTG-0162 NSCL PDX; assay: Patient-derived xenograft, tumor growth delay; type: in vivo, NSG mice; conditions: PDX CTG-0162 (NSCL); every seven days, six doses; median time to 1 cm^3 vs control
Procedure: as §1

[10] = test system: CTG-0165 NSCL PDX; assay: Patient-derived xenograft, tumor growth delay; type: in vivo, NSG mice; conditions: PDX CTG-0165 (NSCL); every seven days, six doses; median time to 1 cm^3 vs control
Procedure: as §1

[11] = test system: CTG-0058 colorectal PDX; assay: Patient-derived xenograft, tumor growth delay; type: in vivo, NSG mice; conditions: PDX CTG-0058 (Colorectal); every seven days, six doses; median time to 1 cm^3 vs control
Procedure: as §1

[12] = test system: CTG-0164 NSCL PDX; assay: Patient-derived xenograft, tumor growth delay; type: in vivo, NSG mice; conditions: PDX CTG-0164 (NSCL); every seven days, six doses; median time to 1 cm^3 vs control
Procedure: as §1

[13] = test system: CTG-0406 colorectal PDX; assay: Patient-derived xenograft, tumor growth delay; type: in vivo, NSG mice; conditions: PDX CTG-0406 (Colorectal); every seven days, six doses; median time to 1 cm^3 vs control
Procedure: as §1

[14] = test system: CTG-0176 NSCL PDX; assay: Patient-derived xenograft, tumor growth delay; type: in vivo, NSG mice; conditions: PDX CTG-0176 (NSCL); every seven days, six doses; median time to 1 cm^3 vs control
Procedure: as §1

[15] = test system: CTG-0159 NSCL PDX; assay: Patient-derived xenograft, tumor growth delay; type: in vivo, NSG mice; conditions: PDX CTG-0159 (NSCL); every seven days, six doses; median time to 1 cm^3 vs control
Procedure: as §1

[16] = test system: CTG-0117 colorectal PDX; assay: Patient-derived xenograft, tumor growth delay; type: in vivo, NSG mice; conditions: PDX CTG-0117 (Colorectal); every seven days, six doses; median time to 1 cm^3 vs control
Procedure: as §1

[17] = test system: CTG-0387 colorectal PDX; assay: Patient-derived xenograft, tumor growth delay; type: in vivo, NSG mice; conditions: PDX CTG-0387 (Colorectal); every seven days, six doses; median time to 1 cm^3 vs control
Procedure: as §1

[18] = test system: CTG-0796 colorectal PDX; assay: Patient-derived xenograft, tumor growth delay; type: in vivo, NSG mice; conditions: PDX CTG-0796 (Colorectal); every seven days, six doses; median time to 1 cm^3 vs control
Procedure: as §1

[19] = test system: CTG-0419 colorectal PDX; assay: Patient-derived xenograft, tumor growth delay; type: in vivo, NSG mice; conditions: PDX CTG-0419 (Colorectal); every seven days, six doses; median time to 1 cm^3 vs control
Procedure: as §1

[20] = test system: CTG-0167 NSCL PDX; assay: Patient-derived xenograft, tumor growth delay; type: in vivo, NSG mice; conditions: PDX CTG-0167 (NSCL); every seven days, six doses; median time to 1 cm^3 vs control
Procedure: as §1

[21] = test system: CTG-0440 colorectal PDX; assay: Patient-derived xenograft, tumor growth delay; type: in vivo, NSG mice; conditions: PDX CTG-0440 (Colorectal); every seven days, six doses; median time to 1 cm^3 vs control
Procedure: as §1

[22] = test system: Hs746T gastric cancer xenografts; assay: Hs746T xenograft efficacy
Procedure: Female SCID, SCID-Beige and nude mice were obtained from Charles River (Wilmington, Mass.) and housed at ten mice per cage. The body weight upon arrival was 20-22 g. Food and water were available ad libitum. Mice were acclimated to the animal facilities for a period of at least one week prior to commencement of experiments. Animals were tested in the light phase of a 12-hr light: 12-hr dark schedule (lights on at 06:00 hours).
Tumor volumes are depicted as mean±S.E.M.

[23] = test system: NSCLC squamous cell carcinoma; assay: Phase 1 overall response versus H score; type: in vivo, human; conditions: three patients, 2.7 mg/kg once every 3 weeks, IHC scores between 150 to 224
Description: (§2) The IHC score was obtained using the protocol described in Example 17.

[24] = test system: NSCLC adenocarcinoma; assay: Phase 1 overall response versus H score; type: in vivo, human; conditions: IHC scores of 225 or greater
Description: as §2

[25] = test system: NCI-H441 lung cancer xenografts; assay: NCI-H441 xenograft efficacy; type: in vivo, mice; conditions: both every four days, six doses; dose-dependent; FIG. 11B
Description: Food and water were available ad libitum.
Each experimental group included 8-10 animals.

Question: For “ABBV-399: ADC comprised of the cMet targeting antibody ABT-700 conjugated to MMAE through a valine citrulline (vc) linker”, which “TGD (%) tumor growth delay” value [1] is on record?
Answer: Its value is 114%.

Question: What about the “TGD (%) tumor growth delay” value [2] of the same substance?
Answer: Its value is 350%.

Question: And the “TGD (%) tumor growth delay” value [3]?
Answer: The value was 126%.

Question: And the “TGD (%) tumor growth delay” value [4]?
Answer: The value was 0%.

Question: And the “TGD (%) tumor growth delay” value [5]?
Answer: Its value is 94%.

Question: And the “TGD (%) tumor growth delay” value [6]?
Answer: The value was 0%.

Question: What about the “TGD (%) tumor growth delay” value [7] of the same substance?
Answer: The value was 0%.

Question: And the “TGD (%) tumor growth delay” value [8]?
Answer: Its value is 0%.

Question: And the “TGD (%) tumor growth delay” value [9]?
Answer: Its value is 88%.

Question: What about the “TGD (%) tumor growth delay” value [10] of the same substance?
Answer: The value was 170%.

Question: And the “TGD (%) tumor growth delay” value [11]?
Answer: The value was 71%.

Question: And the “TGD (%) tumor growth delay” value [12]?
Answer: The value was 25%.

Question: What about the “TGD (%) tumor growth delay” value [13] of the same substance?
Answer: The value was 0%.

Question: And the “TGD (%) tumor growth delay” value [14]?
Answer: The value was 71%.

Question: And the “TGD (%) tumor growth delay” value [15]?
Answer: The value was 288%.

Question: And the “TGD (%) tumor growth delay” value [16]?
Answer: The value was 0%.

Question: And the “TGD (%) tumor growth delay” value [17]?
Answer: The value was 0%.

Question: What about the “TGD (%) tumor growth delay” value [18] of the same substance?
Answer: The value was 78%.

Question: What about the “TGD (%) tumor growth delay” value [19] of the same substance?
Answer: Its value is 54%.

Question: What about the “TGD (%) tumor growth delay” value [20] of the same substance?
Answer: Its value is 0%.

Question: What about the “TGD (%) tumor growth delay” value [21] of the same substance?
Answer: The value was 12%.

Question: What about the “in vivo activity, comparison” value ([22]; ABT-700 every seven days, ABBV-399 every four days, dose-dependent, FIG. 11A) of the same substance?
Answer: The value was “more active than ABT-700 alone”.

Question: What about the “tumor response” value ([22]; tumors relapsed after ABT-700 treatment, FIG. 12A) of the same substance?
Answer: The value was “regression”.

Question: What about the “response” value [23] of the same substance?
Answer: The value was “partial responses”.

Question: And the “response” value ([24]; four patients, 2.7 mg/kg Q3W and erlotinib)?
Answer: The value was “partial responses”.

Question: What about the “response” value ([24]; two patients, once every two weeks) of the same substance?
Answer: Its value is “either a partial response or a complete response”.

Question: What about the “in vivo activity, comparison” value [25] of the same substance?
Answer: Its value is “more active than ABT-700 alone”.
